Assay results reported in PMC8854719, “Phase 1A/1B dose-escalation and -expansion study to evaluate the safety, pharmacokinetics, food effects and antitumor activity of pamiparib in advanced solid tumours” (British Journal of Cancer, 2021).
Several values for one entry are separate records, joined by “and”; a condition that tells them apart may be missing. Equal values may be shown once.

Tested on: epithelial ovarian cancer (EOC)
Assay: Tumour response and PFS per RECIST v1.1, EOC efficacy-evaluable population
Assay type: in vivo, human
Description: Tumour response was evaluated by RECIST v1.1. For patients with ovarian cancer, tumour response was assessed per RECIST v1.1 and by Gynecologic Cancer Intergroup (GCIG) CA-125 criteria. Tumour response for patients with prostate cancer was assessed by Prostate Cancer Clinical Trials Working Group 2 (PCWG2) criteria. Objective response rate (ORR) was defined as the proportion of patients achieving a confirmed complete response (CR) or partial response (PR) on study treatment. Blood tumour antigens (e.g., carcinoembryonic antigen for colorectal cancer, CA-125 for ovarian cancer and prostate-specific antigen [PSA] for mCRPC) were assessed during screening, every 6 weeks after the first pamiparib dose in the first 12 months, and every 9 weeks thereafter.
Analyses of ORR (95% confidence interval [CI]) by investigator assessment were performed using predefined subgroups of the EOC population, including age group (<65 years versus ≥65 years), baseline ECOG performance status (0 versus 1), solid tumour stage (Stage III versus IV), BRCA/HRD status (germline BRCA mutation versus wild-type or unknown; germline or somatic BRCA mutation versus wild-type or unknown; HRD-positive versus negative or unknown), and platinum response status (platinum-sensitive versus platinum-resistant versus platinum-refractory).
The safety population comprised all patients in the dose-escalation and dose-expansion phases who received at least one dose of pamiparib (Supplementary Table S2). Patients in the safety analysis set for whom valid pamiparib PK parameters were estimated and for whom evaluable PD results were available represented the PK population and the PD population, respectively. The efficacy-evaluable population included patients in the safety analysis set who had at least one evaluable postbaseline tumour assessment or those who discontinued due to clinical disease progression or early death before tumour assessment could be performed. The EOC efficacy-evaluable population was a subset of the overall efficacy-evaluable population that included patients with EOC from both the dose-escalation and dose-expansion phases. Patients in the dose-expansion phase without measurable disease at baseline per RECIST v1.1 were excluded from the efficacy-evaluable population.
Descriptive statistics were used to summarise all study data (see Supplemental Appendix). Progression-free survival (PFS) and event-free rates were estimated using the Kaplan–Meier method along with the corresponding 95% CI. Pharmacokinetic parameters were derived using standard non-compartmental methods with Phoenix WinNonlin Version 6.4 or higher (Pharsight Corp., Mountain View, California).

[1] = EOC evaluable for efficacy (N=60)
[2] = EOC, Total BID Dosage Group (n=51)
[3] = EOC, Total QD Dosage Group (n=9)
[4] = Total BID dosage group, EOC efficacy-evaluable (n = 51)

C[C@]12CCCN1CC1=NNC(=O)c3cc(F)cc4[nH]c2c1c34 [pamiparib]
CR [1]: 6.7% | PR [1]: 31.7% | Event-free rate, 1 year (EOC, Total (N=60)): 41.0 (26.93-54.59) % (95% CI) | Event-free rate, 2 years (EOC, Total (N=60)): 14.8 (5.46-28.41) % (95% CI) | ORR, subgroup Age <65 (EOC, Total (N=60)): 39.5 (24.98-55.59) [43/60] % (95% CI) | ORR, subgroup Age ≥65 (EOC, Total (N=60)): 35.3 (14.21-61.67) [17/60] % (95% CI) | ORR, subgroup Baseline ECOG performance status 0 (EOC, Total (N=60)): 45.8 (25.55-67.18) [24/60] % (95% CI) | ORR, subgroup Baseline ECOG performance status ≥1 (EOC, Total (N=60)): 33.3 (18.56-50.97) [36/60] % (95% CI) | ORR, subgroup Germline BRCA status Mutant (EOC, Total (N=60)): 66.7 (40.99-86.66) [18/60] % (95% CI) | ORR, subgroup Germline BRCA status Wild-type/Unknown (EOC, Total (N=60)): 26.2 (13.86-42.04) [42/60] % (95% CI) | ORR, subgroup Germline or somatic BRCA status Mutant (EOC, Total (N=60)): 61.3 (42.19-78.15) [31/60] % (95% CI) | ORR, subgroup Germline or somatic BRCA status Wild-type/Unknown (EOC, Total (N=60)): 13.8 (3.89-31.66) [29/60] % (95% CI) | ORR, subgroup HRD status Negative/Unknown (EOC, Total (N=60)): 15.4 (4.36-34.87) [26/60] % (95% CI) | ORR, subgroup HRD status Positive (EOC, Total (N=60)): 55.9 (37.89-72.81) [34/60] % (95% CI) | ORR, subgroup Platinum-sensitivity status Refractory (EOC, Total (N=60)): 8.3 (0.21-38.48) [12/60] % (95% CI) | ORR, subgroup Platinum-sensitivity status Resistant (EOC, Total (N=60)): 16.7 (4.74-37.38) [24/60] % (95% CI) | ORR, subgroup Platinum-sensitivity status Sensitive (EOC, Total (N=60)): 75.0 (53.29-90.23) [24/60] % (95% CI) | ORR, subgroup Solid tumor stage 3 (EOC, Total (N=60)): 45.5 (28.11-63.65) [33/60] % (95% CI) | ORR, subgroup Solid tumor stage 4 (EOC, Total (N=60)): 26.1 (10.23-48.41) [23/60] % (95% CI) | PFS censored: No disease progression or death (EOC, Total (N=60)): 17 (28.3) n (%) | PFS censored: No postbaseline assessment (EOC, Total (N=60)): 2 (3.3) n (%) | PFS censored: ≥2 consecutive missed assessments (EOC, Total (N=60)): 2 (3.3) n (%) | PFS events: Death (EOC, Total (N=60)): 9 (15.0) n (%) | PFS events: Disease progression (EOC, Total (N=60)): 30 (50.0) n (%) | PFS: Censored (EOC, Total (N=60)): 21 (35.0) n (%) | PFS: Events (EOC, Total (N=60)): 39 (65.0) n (%) | Progression-Free Survival, Median (EOC, Total (N=60)): 8.3 (5.45-13.67) months (95% CI) | Event-free rate, 1 year [2]: 45.6 (29.51-60.25) % (95% CI) | Event-free rate, 2 years [2]: 16.4 (5.98-31.33) % (95% CI) | ORR, subgroup Age <65 [2]: 42.1 (26.31-59.18) [38/51] % (95% CI) | ORR, subgroup Age ≥65 [2]: 38.5 (13.86-68.42) [13/51] % (95% CI) | ORR, subgroup Baseline ECOG performance status 0 [2]: 47.8 (26.82-69.41) [23/51] % (95% CI) | ORR, subgroup Baseline ECOG performance status ≥1 [2]: 35.7 (18.64-55.93) [28/51] % (95% CI) | ORR, subgroup Germline BRCA status Mutant [2]: 73.3 (44.90-92.21) [15/51] % (95% CI) | ORR, subgroup Germline BRCA status Wild-type/Unknown [2]: 27.8 (14.20-45.19) [36/51] % (95% CI) | ORR, subgroup Germline or somatic BRCA status Mutant [2]: 64.3 (44.07-81.36) [28/51] % (95% CI) | ORR, subgroup Germline or somatic BRCA status Wild-type/Unknown [2]: 13.0 (2.78-33.59) [23/51] % (95% CI) | ORR, subgroup HRD status Negative/Unknown [2]: 14.3 (3.05-36.34) [21/51] % (95% CI) | ORR, subgroup HRD status Positive [2]: 60.0 (40.60-77.34) [30/51] % (95% CI) | ORR, subgroup Platinum-sensitivity status Refractory [2]: 9.1 (0.23-41.28) [11/51] % (95% CI) | ORR, subgroup Platinum-sensitivity status Resistant [2]: 21.1 (6.05-45.57) [19/51] % (95% CI) | ORR, subgroup Platinum-sensitivity status Sensitive [2]: 76.2 (52.83-91.78) [21/51] % (95% CI) | ORR, subgroup Solid tumor stage 3 [2]: 53.6 (33.87-72.49) [28/51] % (95% CI) | ORR, subgroup Solid tumor stage 4 [2]: 23.8 (8.22-47.17) [21/51] % (95% CI) | PFS censored: No disease progression or death [2]: 15 (29.4) n (%) | PFS censored: No postbaseline assessment [2]: 2 (3.9) n (%) | PFS censored: ≥2 consecutive missed assessments [2]: 2 (3.9) n (%) | PFS events: Death [2]: 6 (11.8) n (%) | PFS events: Disease progression [2]: 26 (51.0) n (%) | PFS: Censored [2]: 19 (37.3) n (%) | PFS: Events [2]: 32 (62.7) n (%) | Progression-Free Survival, Median [2]: 9.9 (5.49-14.62) months (95% CI) | Best overall response: Complete response (EOC, Total BID and QD (N=60)): 4 (6.7) n (%) | Best overall response: Not assessed (EOC, Total BID and QD (N=60)): 3 (5.0) n (%) | Best overall response: Not evaluable (EOC, Total BID and QD (N=60)): 2 (3.3) n (%) | Best overall response: Partial response (EOC, Total BID and QD (N=60)): 19 (31.7) n (%) | Best overall response: Progressive disease (EOC, Total BID and QD (N=60)): 2 (3.3) n (%) | Best overall response: Stable disease (EOC, Total BID and QD (N=60)): 30 (50.0) n (%) | Clinical benefit rate (EOC, Total BID and QD (N=60)): 51.7 (38.39-64.77) % (95% CI) | Disease control rate (EOC, Total BID and QD (N=60)): 88.3 (77.43-95.18) % (95% CI) | Objective response rate (EOC, Total BID and QD (N=60)): 38.3 (26.07-51.79) % (95% CI) | Best overall response: Complete response [3]: 0 (0) n (%) | Best overall response: Not assessed [3]: 0 (0) n (%) | Best overall response: Not evaluable [3]: 1 (11.1) n (%) | Best overall response: Partial response [3]: 2 (22.2) n (%) | Best overall response: Progressive disease [3]: 0 (0) n (%) | Best overall response: Stable disease [3]: 6 (66.7) n (%) | Clinical benefit rate [3]: 33.3 (7.49-70.07) % (95% CI) | Disease control rate [3]: 88.9 (51.75-99.72) % (95% CI) | ORR, subgroup Age <65 [3]: 20.0 (0.51-71.64) [5/9] % (95% CI) | ORR, subgroup Age ≥65 [3]: 25.0 (0.63-80.59) [4/9] % (95% CI) | ORR, subgroup Baseline ECOG performance status 0 [3]: 0.0 (0.00-97.50) [1/9] % (95% CI) | ORR, subgroup Baseline ECOG performance status ≥1 [3]: 25.0 (3.19-65.09) [8/9] % (95% CI) | ORR, subgroup Germline BRCA status Mutant [3]: 33.3 (0.84-90.57) [3/9] % (95% CI) | ORR, subgroup Germline BRCA status Wild-type/Unknown [3]: 16.7 (0.42-64.12) [6/9] % (95% CI) | ORR, subgroup Germline or somatic BRCA status Mutant [3]: 33.3 (0.84-90.57) [3/9] % (95% CI) | ORR, subgroup Germline or somatic BRCA status Wild-type/Unknown [3]: 16.7 (0.42-64.12) [6/9] % (95% CI) | ORR, subgroup HRD status Negative/Unknown [3]: 20.0 (0.51-71.64) [5/9] % (95% CI) | ORR, subgroup HRD status Positive [3]: 25.0 (0.63-80.59) [4/9] % (95% CI) | ORR, subgroup Platinum-sensitivity status Sensitive [3]: 66.7 (9.43-99.16) [3/9] % (95% CI) | ORR, subgroup Solid tumor stage 3 [3]: 0.0 (0.00-52.18) [5/9] % (95% CI) | ORR, subgroup Solid tumor stage 4 [3]: 50.0 (1.26-98.74) [2/9] % (95% CI) | Objective response rate [3]: 22.2 (2.81-60.01) % (95% CI) | PFS censored: No disease progression or death [3]: 2 (22.2) n (%) | PFS censored: No postbaseline assessment [3]: 0 (0) n (%) | PFS censored: ≥2 consecutive missed assessments [3]: 0 (0) n (%) | PFS events: Death [3]: 3 (33.3) n (%) | PFS events: Disease progression [3]: 4 (44.4) n (%) | PFS: Censored [3]: 2 (22.2) n (%) | PFS: Events [3]: 7 (77.8) n (%) | Progression-Free Survival, Median [3]: 4.9 (1.84-NE) months (95% CI) | Best overall response: Complete response [4]: 4 (7.8) n (%) | Best overall response: Not assessed [4]: 3 (5.9) n (%) | Best overall response: Not evaluable [4]: 1 (2.0) n (%) | Best overall response: Partial response [4]: 17 (33.3) n (%) | Best overall response: Progressive disease [4]: 2 (3.9) n (%) | Best overall response: Stable disease [4]: 24 (47.1) n (%) | Clinical benefit rate [4]: 54.9 (40.3–68.9) % (95% CI) and 54.9 (40.34-68.87) % (95% CI) | Disease control rate [4]: 88.2 (76.1–95.6) % (95% CI) and 88.2 (76.13-95.56) % (95% CI) | Objective response rate [4]: 41.2 (27.6–55.8) % (95% CI) and 41.2 (27.58-55.83) % (95% CI)
